Entries after “also recorded” stand apart in the source; their conditions may differ.
Experiments:
[1] = test system: VDR target genes IGFBP-3, TRPV6 and CYP24A1 in LNCaP cells; experiment: Semi-quantitative real time PCR, VDR target genes in LNCaP cells; assay type: cell-based, human
HL-60 cells [2] = experiment: HL60 differentiation assay; assay type: cell-based, human; settings: 4 days, 1,25(OH)2D3 alone
[3] = test system: AR target genes UGT1A1 and PSA in LNCaP cells; experiment: Semi-quantitative real time PCR, AR target genes in LNCaP cells; assay type: cell-based, human; settings: 18 h
TRβ–SRC2–2 interaction = TRβ–SRC2–2 interaction (Homo sapiens, UniProt P10828); experiment: FP assay TRβ–SRC2–2 inhibition; assay type: binding
[4] = molecular target: VDR-SRC2–3 Alexa Fluor 647 interaction (Homo sapiens, UniProt P11473, DEL165-215); experiment: VDR–SRC2–3 FP assay in the presence of 1 mM or 100 mM 2-mercaptoethanol; assay type: binding; settings: small molecules 50 µM; Alexa Fluor 647 SRC2–3
TRβ = settings: HTS campaign; ref AID:588547, pubchem; cited from earlier work
glucocorticoid receptor = settings: HTS campaign; ref AID:588533, pubchem; cited from earlier work
PPARγ–DRIP2 interaction = molecular target: T1, PPARγ–DRIP2 interaction (Homo sapiens, UniProt P37231); experiment: FP assay PPARγ–DRIP2; assay type: binding
T1 sequence (P37231 238-503 limits assumed): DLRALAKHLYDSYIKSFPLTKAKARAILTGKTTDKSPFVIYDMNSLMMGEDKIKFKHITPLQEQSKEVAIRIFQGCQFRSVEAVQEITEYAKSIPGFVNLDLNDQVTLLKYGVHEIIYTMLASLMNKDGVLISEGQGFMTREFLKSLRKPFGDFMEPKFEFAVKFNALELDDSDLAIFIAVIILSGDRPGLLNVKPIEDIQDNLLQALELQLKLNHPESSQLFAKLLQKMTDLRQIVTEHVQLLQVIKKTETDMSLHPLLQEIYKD

SRC2 = experiment: Isothermal titration calorimetry GW0742–SRC2; assay type: binding
HEK293T cells = experiment: Toxicity in HEK293T cells; settings: at a concentration of 45.8 µM; AID:602204
VDR = VDR (Homo sapiens, UniProt P11473); experiment: VDR ligand competition FP assay; assay type: binding; settings: with respect to 100% free probe (55 mP) measured in the absence of VDR
Cell viability = assay type: cell-based, human; settings: human
HEK 293T cells = experiment: Cell viability; assay type: cell-based, human; settings: GW0742 18.7 µM; CellTiter-Glo
[5] = molecular target: interaction between VDR and SRC2–3 (Homo sapiens, UniProt P11473, DEL165-215); experiment: HTS FP assay, VDR–SRC2–3 inhibition; assay type: binding; settings: HTS campaign; Texas Red-labeled SRC2–3
[6] = test system: TR target gene BTG2 in LNCaP cells; experiment: Semi-quantitative real time PCR, TR target gene in LNCaP cells; assay type: cell-based, human; settings: 18 h
VDR–SRC2 interaction = VDR–SRC2 interaction (Homo sapiens, UniProt P11473, DEL165-215); experiment: Western pull-down assay VDR-LBD and SRC2 bearing all three NIDs; assay type: binding
retinoid X receptor = settings: HTS campaign; ref AID:588546, pubchem; cited from earlier work
estrogen receptor α = settings: HTS campaign; ref AID:588513, pubchem; cited from earlier work
PPARγ [7] = molecular target: PPARγ (Homo sapiens, UniProt P37231); experiment: One-hybrid luciferase transcription assay in HEK 293T cells; assay type: cell-based
[8] = test system: ANGPTL4 in HT29 colon cancer cells; settings: GW0742 1 µM; cited from earlier work
PPARγ [9] = settings: HTS campaign; ref AID588537, pubchem; cited from earlier work
[10] = test system: PPARγ target gene ANGPTL4 in LNCaP cells; experiment: Semi-quantitative real time PCR, PPARγ target gene in LNCaP cells; assay type: cell-based, human; settings: 18 h
HL-60 cells [11] = experiment: HL-60 cell death in differentiation assay; assay type: cell-based, human; settings: 4 days
[12] = GW0742 20 µM + 1,25(OH)2D3 10 nM, 18 h

TRβ–SRC2–2 interaction, sequence (P10828 217-461 limits assumed): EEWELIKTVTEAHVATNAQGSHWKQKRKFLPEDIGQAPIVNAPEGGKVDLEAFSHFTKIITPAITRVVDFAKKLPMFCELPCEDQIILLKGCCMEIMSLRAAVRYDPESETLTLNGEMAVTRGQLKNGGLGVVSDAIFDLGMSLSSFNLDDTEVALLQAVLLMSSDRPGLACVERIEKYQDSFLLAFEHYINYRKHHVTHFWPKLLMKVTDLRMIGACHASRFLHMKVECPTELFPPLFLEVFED

Compound: C=C1/C(=C\C=C2/CCC[C@]3(C)[C@@H]([C@H](C)CCCC(C)(C)O)CC[C@@H]23)C[C@@H](O)C[C@@H]1O [1,25(OH)2D3, 1,25-dihydroxyvitamin D3]
- CYP24A1 expression ([1]; 1,25(OH)2D3 10 nM, 6 hours and 18 hours): induction; also recorded: moderately upregulated
- IGFBP-3 expression ([1]; 1,25(OH)2D3 10 nM, 18 h): strongly induced
- TRPV6 expression ([1]; 1,25(OH)2D3 10 nM, 18 h): strongly induced
- HL-60 cell differentiation (HL-60 cells [2]): strong

Compound: C[C@]12CCC(=O)C[C@@H]1CC[C@@H]1[C@@H]2CC[C@]2(C)[C@@H](O)CC[C@@H]12 [DHT, dihydrotestosterone]
- UGT1A1 expression ([3]; DHT 10 nM): upregulated

Compound: Cc1cc(SCc2sc(-c3ccc(C(F)(F)F)c(F)c3)nc2C)ccc1OCC(=O)O [GW0742]
- IC50 (TRβ–SRC2–2 interaction): 59.9 ± 9.5 µM
- effect on DHT-induced PSA expression ([3]; GW0742 20 µM + DHT 10 nM): significant inhibitory effect
- effect on DHT-induced UGT1A1 expression ([3]; GW0742 20 µM + DHT 10 nM): significant inhibitory effect
- inhibition of VDR–SRC2–3 interaction at 100 mM ME in comparison with 1 mM ME [4]: not influenced
- antagonistic activity TRβ (TRβ): Antagonistic activity
- antagonistic activity GR (glucocorticoid receptor): Antagonistic activity
- EC50 (PPARγ–DRIP2 interaction): 2.6 µM
- IC50 (PPARγ–DRIP2 interaction): > 86 µM
- concentration with significant inhibition between PPARγ-LBD and DRIP2 (PPARγ–DRIP2 interaction; FP assay): > 86 µM
- interaction between GW0742 and SRC2 (ITC) (SRC2): no specific interaction was observed
- effect on 1,25(OH)2D3-induced IGFBP-3 expression [1, 12]: selectively inhibited
- effect on 1,25(OH)2D3-induced TRPV6 expression [1, 12]: selectively inhibited
- effect on 1,25(OH)2D3-induced CYP24A1 expression ([1]; only at 6 hours and 50 µM GW0742 + 1,25(OH)2D3 10 nM): significant inhibition
- cell death (HEK293T cells): 18%
- extent of inhibition of VDR–ligand binding (VDR): partial inhibition
- viability at 16 h, 37.5 µM (Cell viability): 93 ± 3%
- toxicity (HEK 293T cells): no toxicity was observed
- VDR–SRC2–3 inhibition (FP assay) IC50 [5]: inconclusive
- effect on T3-mediated down-regulation of BTG2 ([6]; GW0742 20 µM + T3 10 nM): reversed
- inhibition of the VDR–SRC2 interaction (pull-down) (VDR–SRC2 interaction; in the presence of VDR ligand): blocked in a dose dependent manner
- concentration with significant inhibition of the VDR–SRC2 interaction (VDR–SRC2 interaction; residual bands still detected): 80 to 120 µM
- antagonistic activity RxR (retinoid X receptor): Antagonistic activity
- antagonistic activity ERα (estrogen receptor α): Antagonistic activity
- concentration with significant PPARγ-mediated transcriptional inhibition (PPARγ [7]): > 20 µM
- ANGPTL4 activation [8]: activation
- antagonistic activity PPARγ (PPARγ [9]): Antagonistic activity
- effect on rosiglitazone-induced ANGPTL4 expression ([10]; GW0742 20 µM + rosiglitazone 5 µM): unaffected; also recorded: inconclusive
- concentration with significant HL-60 cell death (HL-60 cells [11]): 150 µM

Compound: CN(CCOc1ccc(CC2SC(=O)NC2=O)cc1)c1ccccn1 (centres unmarked) [Rosiglitazone]
- ANGPTL4 expression ([10]; rosiglitazone 5 µM): induced

Compound: N[C@@H](Cc1cc(I)c(Oc2ccc(O)c(I)c2)c(I)c1)C(=O)O [T3, triiodothyronine]
- BTG2 expression ([6]; T3 10 nM): down-regulated
